Source: patent US20160113895A1, “Novel Use of Adapalene in Treating Esophageal Cancer and Gastrointestinal Stromal Tumor” (Biodelight Biotech Inc., priority 2013, published 2016)

Key:
H460 = assay: 3D cell proliferation assay (soft agar), H460; type: cell-based, human; conditions: Homo sapiens, NCI-H460, 3D soft agar
Protocol: (§1) Drug nsl-8 was further subjected to a 3D cell proliferation assay for assessing its potential in inhibiting the growth of NSCLC tumors. The same four NSCLC cell lines used in 2D proliferation assays were grown in soft agar and the drug was added after the agar has solidified. The drug added cells were then incubated several days until colonies have formed in the solvent control. Subsequently, Alamar Blue which was a cell viability reagent was added and the corresponding fluorescence released was measured as an indirect quantification of colony growth in soft agar.
(§2) For each cell line, some 96 well culture plates were prepared. 100 μL of the soft agar bottom layer (0.6% final concentration in complete medium) was poured and left to solidify. 50 μL of the soft agar top layer (0.4% final concentration) containing the corresponding cells and cell number were then added on top, solidified and such 96 well plates were incubated overnight at 37° C. in 10% CO2. Next day, drugs were added at indicated final concentrations into the inner wells of the plate. Subsequently, the assays were incubated in cell culture incubators for the indicated period of time. Finally, the assays were developed using Alamar Blue and upon 3-5 h of incubation at 37 ° C. fluorescence intensity was determined (excitation: 560 nm, emission: 590 nm). […]

H1299 = assay: 3D cell proliferation assay (soft agar), H1299; type: cell-based, human; conditions: Homo sapiens, NCI-H1299, 3D soft agar
Protocol: as §1, §2

A549 implanted tumors = assay: Subcutaneous A549 xenograft model, groups 2a-2c, o.p.; conditions: for Tumor inhibition rate (%): A549, o.p. once daily, Tarceva 20 mpk; for Tumor inhibition rate (%) / Body weight change (%): NSL-8 70 mpk; for Body weight change (%): A549 tumor-bearing mice, Tarceva 20 mpk o.p.
Protocol: The antitumor efficacy of the drug lead nsl-8 searched was studied using the subcutaneous xenografted A549 and HCC827 lung cancer tumor models in vivo. […] Mice were maintained in individual ventilated cages (IVC, max. 4 mice/cage) at constant temperature and humidity. Animal weights were determined three times (Monday, Wednesday and Friday) for groups 1a and 1b or two times (Monday and Thursday) for groups 2a-2c and 3a-3c animals. Animal behaviour was monitored daily.
On day 0, either 2×10^6 A549 or 2×10^6 HCC827 tumor cells in 100 μL PBS were implanted into the subcutaneous space of the left flank of all corresponding BALB/c nude and SCID mice, respectively. In the following, tumor sizes were determined by caliper measurement. Tumor sizes were calculated according to the formula W^2×Lg/2 (Lg=length and W=the perpendicular width of the tumor, L>W). On day 48 or 30, after mean tumor volumes had reached approx. 100 mm^3, the corresponding tumor-bearing animals were randomized into 2 groups of 8 (A549 model: groups 1a and 1b) or 10 animals (A549 model: groups 2a and 2b) according to tumor sizes. On day 24 or 28, after mean tumor volumes had reached approx. 100 mm^3, the corresponding tumor-bearing animals were randomized into 2 groups of 10 animals (HCC827 model: groups 3a and 3b) according to tumor sizes. […] The percentage of tumor growth inhibition (TGI) was calculated using the following formula: […]
where T and C represent the mean tumor volume of the treatment and the control group, respectively.
The solution was aliquoted into several 15 ml sterile centrifuge tubes in 650 μl quantity per tube and then stored frozen at −80° C. until use. […] Animals of group 1b received 40 mg/kg nsl-8 dosage solution once daily through i.p. route on days 48-52 and 62-66, while those of groups 2b and 3b received 70 mg/kg nsl-8 dosage solution once daily through o.p. route on days 1-14 (group 2b) and days 1-14 (group 3b), respectively (Table 4).
Groups 1a and 1b (A549 model) were terminated on day 69, while groups 2a-2c (A549 model) and 3a-3c (HCC827 model) were terminated on day 15. At necropsy, animals were killed by cervical dislocation. Primary tumor weights and volumes were determined. The tumor volume and weight were analysed using descriptive data analysis (Mean, SEM, Median). Statistical analysis of efficacy data was performed using the unpaired t-test. All the data analyses were performed using GraphPad Prism 5 from GraphPad Software, Inc., San Diego, USA.
The serum level of blood urea nitrogen (BUN) was measured for assessing the renal function while those of alanine aminotransferase (ALT) and aspartate aminotransferase (AST) were measured using Ektachem DT system (Johnson & Johnson Clinical Diagnostics) for assessing the liver function. The EDTA treated anticoagulated blood samples were also collected for making a complete peripheral blood count by using a Hematology Analyzer (Sysmex, XT-1800i).
For this study, 0.161 ml nsl-8 stock solution made in DMSO was mixed with 1.339 ml 0.9% w/v saline so that the volume of a final dosage solution prepared to feed an animal was 1.5 ml and containing 10% DMSO. Therefore, both administration routes and vehicles used in treating groups 2a-2b and 3a-3b animals were quite different from that used in treating groups 1a-1b animals.

HCC827 = assay: 2D cell proliferation assay (Alamar Blue), HCC827; type: cell-based, human; conditions: Homo sapiens, HCC827, 72 h
Protocol: There were eight concentrations used for each drug for determining its IC50. […] Actinomycin D was a chemotherapeutic drug simply used as a quality control for all the experiments.
In the 2D cell proliferation assay, cells were cultured in DMEM containing 10% FCS and Penicillin/Streptomycin. For the assays, cells were seeded in 150 μL medium on a 96-well cell culture plate and incubated at 37° C. overnight before the compounds were added. […] A day after cell seeding, 10 μL of prediluted compounds was added to the cells (1:16 dilution). Treatment of cells with 0.1% DMSO or 1% DMSO (for the two top concentrations of nsl-8) and 1.0E-05 M Staurosporine was served as high control (100% viability) and low control (0% viability), respectively. Measurement of the impact of compounds on cell viability was performed as follows: 5000 cells (A549 and HCC827) or 2500 cells (H1299 and H460) were seeded in the inner wells of 96-well-plates in 150 μL complete medium. Next day, compounds were added to the medium to reach the final concentration and then incubated at 37° C. in 5% or 10% CO2 depending on the medium for 72 h.
Raw data were converted into percent cell viability relative to high control (solvent 0.1% DMSO or 1% DMSO for the two top concentrations of drug nsl-8) and low control (1.0E-05 M Staurosporine), which were set to 100% and 0%, respectively.

Compound: COc1ccc(-c2ccc3cc(C(=O)O)ccc3c2)cc1C12CC3CC(CC(C3)C1)C2 [nsl-8, 6-[3-(1-adamantyl)-4-methoxyphenyl]-2-naphthalenecarboxylic acid]
- IC50 (H460): 4.9 µM
- IC50 (H1299): 13 µM
- cell counts of white blood cell, red blood cell, or platelet versus vehicle (A549 implanted tumors; A549 model, peripheral blood at end-point, nsl-8 70 mg/kg, Tarceva 20 mg/kg o.p.): no significant difference
- serum levels of BUN, ALT, and AST among treatment groups (A549 implanted tumors; A549 model, upon completion of the experiments): no significant difference
- Tumor inhibition rate (%) (A549 implanted tumors; Day 0): 0%
- Body weight change (%) (A549 implanted tumors; Day 0): 0%
- Tumor inhibition rate (%) (A549 implanted tumors; Day 3): 7.1%
- Body weight change (%) (A549 implanted tumors; Day 3): −1.9%
- Tumor inhibition rate (%) (A549 implanted tumors; Day 7): 12.0%
- Body weight change (%) (A549 implanted tumors; Day 7): −1.3%
- Tumor inhibition rate (%) (A549 implanted tumors; Day 10): 17.8%
- Body weight change (%) (A549 implanted tumors; Day 10): −2.6%
- Tumor inhibition rate (%) (A549 implanted tumors; Day 14): 19.1%
- Body weight change (%) (A549 implanted tumors; Day 14): −2.0%
- decline of body weight upon completion of the experiments (A549 implanted tumors; group 2b, 70 mg/kg daily o.p.): 2.0%
- IC50 (HCC827): 11 µM
